Format in all cases: physicochemical
The nature of series [1]: Interconversion of crystal forms via heating and slurry competition experiments. The following applies: for form after slurry competition: slurry in various solvent systems. From the text:
Relationships among Type A-F crystal forms were investigated via heating and slurry competition experiments.

A short description of series [2]: Equilibrium solubility in water at room temperature for 24 hours. To be noted: for Form Change: residual solids by XRPD after 24 hours in water at room temperature; for pH: solubility test in water, 24 hours; for pH / Solubility: room temperature; for Solubility: water, 24 hours equilibrium. The protocol: 10 mg of Type A, B, D, and F samples each was added into a 1.5-mL glass vial, and 1.0 mL of water was then added. The mixture was rolled at 25 rpm at room temperature for 24 hours. The suspension was centrifuged and filtered to isolate the supernatant for HPLC concentration and purity testing and the residual solids were characterized by XRPD.

Series [3] can be described thus: Solid-state stability assessment on storage (XRPD and HPLC purity). The protocol:
Approximate 10 mg of Type A sample was added into each 1.5-mL glass vial and stored at 80° C. (closed) for 1 day, 25° C./60% RH and 40° C./75% RH (open) for 1 week, then tested by XRPD and HPLC purity. Approximate 4 mg of Type B sample was added into each 1.5-mL glass vial and stored at 80° C. (closed) for 1 day, 25° C./60% RH and 40° C./75% RH (open) for 1 week, then tested by XRPD and HPLC purity. Approximate 4 mg of Type D sample was added into each 1.5-mL glass vial and stored at 25° C./60% RH and 40° C./75% RH (open) for 1 week, then tested by XRPD and HPLC purity. Approximate 7 mg of Type F sample was added into each 1.5-mL glass vial and stored at 80° C. (closed) for 1 day, 25° C./60% RH and 40° C./75% RH (open) for 1 week, then tested by XRPD and HPLC purity.

A short description of series [4]: Hygroscopicity assessment by dynamic vapor sorption (DVS). To be noted: for water uptake / hygroscopicity class: 25° C., 80% RH; for hygroscopicity class: Chinese Pharmacopeia 2010 definition; for form change after DVS test: XRPD before and after DVS test. Here is the method:
XRPD studies was performed using a Panalytical Empyrean X-ray powder diffractometer. The parameters of the X-ray powder diffraction of the present disclosure are as follows: • X-ray Reflection: Cu, Kα • Kα1 (Å): 1.540598; Kα2 (Å): 1.544426 • Kα2/Kα1 intensity ratio: 0.50 • Voltage: 45 (kV) • Current: 40 (mA) • Scanning range: from 3.0 degree to 40.0 degree • DSC data in the present disclosure were acquired by a TA Q2000. The parameters of the DSC method of the present disclosure were as follows: • Heating rate: 10° C./min • Purge gas: nitrogen • TGA data in the present disclosure are acquired by a TA Q5000. The parameters of the TGA method of the present disclosure were as follow: • Heating rate: 10° C./min • Purge gas: nitrogen • Dynamic vapor sorption (DVS) data in the present disclosure were acquired by a SMS (Surface Measurement Systems) DVS Intrinsic. The parameters of the dynamic vapor sorption (DVS) method of the present disclosure were as follows: • Temperature: 25° C. • Gas and flow rate: nitrogen, 200 mL/min • dm/dt: 0.002%/min • RH range: 0% RH-95% RH Approximate 10 mg of Type B sample in the present disclosure was assessed by hygroscopicity using a dynamic vapor sorption (DVS) instrument, and tested by XRPD before and after DVS test.

Series [5] is described as follows: Solid-state stability assessment on storage (XRPD and HPLC purity). To be noted: 92.5% RH for about 17 days.
Where [6] appears, read: 80° C. (closed) 1 day and 25° C./60% RH, 40° C./75% RH (open) 1 week.
[7] abbreviates: ACN, EtOH, MeOH/H2O (1:1, v/v) and H2O from RT to 50/70° C.
Setting [8] is: 25° C./60% RH and 40° C./75% RH (open) 1 week.

≈ marks a conversion by molar mass, not a printed value. Entries after “also recorded” stand apart in the source; their conditions may differ.

Take `C=CC(=O)N1CCC(c2ccc(C(N)=O)c(-c3ccc(Oc4ccccc4)cc3)n2)CC1` [Type C, 6-(1-acryloylpiperidin-4-yl)-2-(4-phenoxyphenyl)nicotinamide]: in series [1] (H2O at 50° C. for about 21 days), the form after slurry result is “convert to anhydrate Type B”.

As a reminder, the Solubility is the dissolved amount per volume that the medium holds. A high value points to much dissolved substance. Take `C=CC(=O)N1CCC(c2ccc(C(N)=O)c(-c3ccc(Oc4ccccc4)cc3)n2)CC1` [Type B, 6-(1-acryloylpiperidin-4-yl)-2-(4-phenoxyphenyl)nicotinamide]: in series [2], the “Form Change” value is “No”, the pH is 7.7 and the Solubility was 6 µg/mL (≈ 14 µM). The compound further came in with a Purity/initial purity in series [3] (25° C./60% RH (open)/1 week) of 99.5%. In series [3] (40° C./75% RH (open)/1 week), this compound showed a Purity/initial purity of 99.7%. Further, in series [3] (setting [6]), the “change in purity after storage” value is listed as “no decrease in purity” and the “stability of the form after storage” value is reported as “did not change; also recorded: stable”. In series [3] (80° C. (closed)/1 day), this compound gave a Purity/initial purity of 99.7%. Also, in series [4] (DVS), the water uptake is listed as 0.5% and the hygroscopicity class result is “slightly hygroscopic”. Also, the “form change after DVS test” value in series [4] is recorded as “did not change; also recorded: no form change”. The form after slurry result in series [1] (setting [7]) is given as “converted to Type F”. Also, the “form after slurry competition” value in series [1] is on record as “converted into anhydrate Type F”.

On to `C=CC(=O)N1CCC(c2ccc(C(N)=O)c(-c3ccc(Oc4ccccc4)cc3)n2)CC1` [Type F, 6-(1-acryloylpiperidin-4-yl)-2-(4-phenoxyphenyl)nicotinamide], for which, in series [2], the “Form Change” value is listed as “No” and the pH came out at 6.9. In series [3] (25° C./60% RH (open)/1 week), this compound had a Purity/initial purity of 100.0%. Further, the “stability of the form after storage” value in series [3] (setting [8]) was “relatively good physical and chemical stability”. This compound also showed a Purity/initial purity in series [3] (40° C./75% RH (open)/1 week) of 100.0%. In series [3] (setting [6]), the “change in purity after storage” value is “no decrease in purity” and the “stability of the form after storage” value was “did not change; also recorded: stable”. The Purity/initial purity in series [3] (80° C. (closed)/1 day) is reported as 100.0%. Also, in series [4] (DVS), the water uptake worked out at 1.2% and the hygroscopicity class entry is reported as “slightly hygroscopic”. Also, the “form change after DVS test” value in series [4] is on record as “did not change; also recorded: no form change”. Moreover, the relative thermodynamic stability entry in series [1] (between RT and 50/70° C.) was “thermodynamically more stable form than Type A/B/D; also recorded: more stable anhydrous form among Type A/B/D/F”.

In the case of `C=CC(=O)N1CCC(c2ccc(C(N)=O)c(-c3ccc(Oc4ccccc4)cc3)n2)CC1` [Type A, 6-(1-acryloylpiperidin-4-yl)-2-(4-phenoxyphenyl)nicotinamide], the “Form Change” value in series [2] is “Yes, to Type B”. The compound further yielded a pH in series [2] of 7.4. Further, the Purity/initial purity in series [3] (25° C./60% RH (open)/1 week) is reported as 100.0%; in series [3] (40° C./75% RH (open)/1 week) it was 100.1%; in series [3] (80° C. (closed)/1 day) it was 100.0%. In addition, the “stability of the form after storage” value in series [3] (setting [8]) is “relatively good physical and chemical stability”; in series [3] (setting [6]) it was “did not change; also recorded: stable”. Moreover, the “change in purity after storage” value in series [3] (setting [6]) is on record as “no decrease in purity”. Besides, the hygroscopicity class result in series [4] (DVS) was “hygroscopic”. The form after slurry entry in series [1] (setting [7]) is recorded as “converted to Type F”. In addition, in series [1], the “form after slurry competition” value is listed as “converted into anhydrate Type F”. For the same compound, in series [5], the crystallinity after storage entry is on record as “decreased”.

For the compound `C=CC(=O)N1CCC(c2ccc(C(N)=O)c(-c3ccc(Oc4ccccc4)cc3)n2)CC1` [Type D, 6-(1-acryloylpiperidin-4-yl)-2-(4-phenoxyphenyl)nicotinamide], in series [2], the “Form Change” value is “No”, the pH is 8.0 and the Solubility amounted to 18 µg/mL (≈ 42.1 µM). The Purity/initial purity in series [3] (25° C./60% RH (open)/1 week) was found to be 99.9%. In addition, in series [3] (setting [8]), the “change in purity after storage” value is “no significant decrease in purity” and the “stability of the form after storage” value is recorded as “did not change; also recorded: stable”. Moreover, the Purity/initial purity in series [3] (40° C./75% RH (open)/1 week) amounted to 99.9%. Further, the Final form entry in series [3] (80° C. (closed)/1 day, XRPD) was “converted to a mixture of Type B and D; also recorded: converted to the mixture of Type B and D”. Further, the “DVS finding” value in series [4] (DVS) is given as “relative stable hydrate”. Further, in series [1] (MeOH/H2O (aw~0.5) and EtOH/H2O (aw=0~1) at RT), the form after slurry result is reported as “converted to anhydrate Type F”. Further, the form after dehydration entry in series [1] (dehydration at elevated temperature) is listed as “converted to anhydrate Type E”. Also, the “form after slurry competition” value in series [1] is given as “converted into anhydrate Type F”.

The record behind these values is patent US11945792B2, “Crystalline forms of 6-(1-acryloylpiperidin-4-yl)-2-(4-phenoxyphenyl)nicotinamide” (BEIJING INNOCARE PHARMA TECH CO., LTD., priority 2018, dated 2024).
